Reference: patent US10293023B2, “Method of altering vascular permeability and uses thereof” (CHILDREN'S MEDICAL CENTER CORPORATION, priority 2013, dated 2019)

Columns and labels:
mouse lung tissues = test: Lung stiffness (Young's modulus) by tensile loading assay; details: compared with controls (control IgG, control siRNA)
Protocol: Mice (6-10 weeks old, CD1 strain, female) were treated with LPS (100 mg, intraperitoneally) and lung permeability was assessed 2 days after injection ^3. […] Gene knockdown or overexpression in the lung (2 days later) was confirmed by measuring mRNA and/or protein levels using qRT-PCR and IB, respectively. […] Mice were treated with BAPN (3 mg/kg, drinking water) for 14 days ^13. The inventors also treated mice with LOX function-blocking polyclonal antibody (3 mg/kg)^13,36, LOX DNA or LOX siRNA (10 mg/mouse) injected intravenously (retro orbital injection) twice per week. The inventors treated the mice with LPS for the last two days.
The inventors trimmed and made cylindrical lung tissue sections using a sharp knife that included peripheral and central portions of the left lobe. The stiffness of mouse lung tissues was evaluated by determining Young's Modulus (E) under tensile loading ^31,32 (Mach-1; Biomomentum, Canada). Tissues were attached to the base and probe using polyacrylamide glue and stretched until complete breakage of the tissue. The Young's Modulus was derived from the slope of a standard stress-strain curve using data within the first 10% of the maximum strain.

[1] = test system: pulmonary endothelial cells; test: Endothelial cell-cell junctional integrity in lung by TEM; type: in vivo, mice
Protocol: For transmission electron microscopy (TEM), small pieces (1-2 mm cubes) of lung tissue were fixed with 2.5% Glutaraldehyde and 2% Paraformaldehyde in 0.1 M sodium cacodylate buffer (pH 7.4) for at least 2 h at RT, washed in 0.1M cacodylate buffer and postfixed with 1% Osmiumtetroxide (OsO4)/1.5% Potassiumferrocyanide (KFeCN6) for 1 h, washed in water and incubated in 1% aqueous uranyl acetate for 1 h followed by washes in water and subsequent dehydration in grades of alcohol. The samples were then put in propyleneoxide for 1 hr and infiltrated ON in a 1:1 mixture of propyleneoxide and TAAB Epon (Marivac Canada Inc. St. Laurent, Canada). The samples were then embedded in TAAB Epon and polymerized at 60 C for 48 hrs. Ultrathin sections (about 60 nm) were cut on a Reichert Ultracut-S microtome, picked up on to copper grids stained with lead citrate and examined in a JEOL 1400 TEM microscope or a TecnaiG^2 Spirit BioTWIN.

mouse lungs [2] = test: Inflammatory cell count in BAL fluid (Wright-Giemsa stain); type: in vivo, mice; details: total inflammatory cell count
Protocol: BAL was performed by instilling 0.9% NaCl in two separate 0.5 ml aliquots. The fluid was recovered by gentle suction and placed on ice for immediate processing. An aliquot of the BAL fluid was processed immediately for differential cell counts performed on cytospin preparations stained with modified Wright-Giemsa stain (Diff-Quik; American Scientific Products, McGaw Park, Ill.).

LOX [3] = test: LOX activity measured in blood samples (LOX activity assay kit); type: in vivo; details: treated mice vs control; BAPN 2 weeks, LOX siRNA 1 week
Protocol: LOX activity in the serum and lung homogenate was measured using LOX activity assay kit (ABD Bioquest, CA) in which LOX substrate that releases hydrogen peroxide was detected ^13,37,55. Hydroxyproline in lung tissue or serum was measured using Hydroxyproline assay kit (Biovision, Milpitas, Calif.)^27. The levels of IL-1 and TNF-α in the lung homogenate were measured by ELISA (R&D systems).

lung cell = test: Lung cell proliferation or apoptosis in vivo; parameters: species or system mice; details: data not shown
mouse lungs [4] = test: In vivo pulmonary permeability assay (Evan's Blue dye leakage); parameters: species or system mice
Protocol: (§1) Mice (6-10 weeks old, CD1 strain, female) were treated with LPS (100 mg, intraperitoneally) and lung permeability was assessed 2 days after injection ^3. […] The lung permeability was measured using Evan's Blue dye or low MW fluorescently labeled dextran (MW 4000, sigma) leakage ^3. Evans blue dye was extracted from the lung by incubation with formamide (70° C. for 24 h) and the concentration of Evans blue was estimated by dual-wavelength spectrophotometer (620 nm and 740 nm). Mice were treated with BAPN (3 mg/kg, drinking water) for 14 days ^13. […] The inventors treated the mice with LPS for the last two days. For decellularization of lung, the inventors perfused the lung with decellularization buffer (0.5% SDS/PBS) for 1 h and cryosectioned it and analyzed by H&E staining and immunohistochemistry 25,26. […] For analysis of collagen structure, the inventors used picrosirius red staining ^30 and observed the structure using birefringence microscope (Abrio imaging system, CRI, MA)^30.

mouse lungs [5] = test: ECM and collagen structure of decellularized lung (H&E, immunofluorescence, picrosirius red birefringence); details: for collagen fiber alignment with alveolar septae: picrosirius red staining, birefringence microscopy
Protocol: as §1

mouse lungs [6] = test: Endotoxin (LPS)-induced lung vascular permeability, Evan's Blue dye leakage; details: for increase of vascular permeability induced by LPS: treatment in combination with LPS for the last two days
Protocol: as §1

LOX [7] = test: LOX mRNA and protein expression in vivo (qRT-PCR, immunoblot); parameters: species or system mice
Protocol: Quantitative reverse transcription (qRT)-PCR was performed with the Quantitect SYBR Green RT-PCR kit (QIAGEN) using ABI 7300 real time PCR system (Applied Biosystems, Foster City, Calif.). Cyclophilin controlled for overall cDNA content. The primers used for mouse cyclophilin were forward; 5′-[…]-3′ (SEQ ID NO:4), reverse; 5′-[…]-3′(SEQ ID NO:5)^15. The primers for mouse LOX were forward; 5′-[…]-3′(SEQ ID NO:6), reverse; 5′-[…]-3′(SEQ ID NO:7).

Compound | decrease of lung stiffness (Young's modulus) (mouse lung tissues) [%] | junctions between pulmonary endothelial cells [1] | increase of inflammatory cells in the bronchoalveolar lavage (BAL) fluid (mouse lungs [2]) | decrease in LOX activity measured in blood samples (LOX [3]) [%] | lung cell proliferation or apoptosis in vivo (lung cell) | lung vascular permeability: Evan's Blue dye leakage higher than in control non-treated lungs (mouse lungs [4]; BAPN treatment of healthy mice) | disruption of collagen VI-positive ECM fibers by LPS (mouse lungs [5]; decellularized lungs, LPS in combination with BAPN) | fine collagen fibril / ECM structure in decellularized lung (mouse lungs [5]; immunofluorescence microscopy) | collagen fiber alignment with alveolar septae (mouse lungs [5]) | LPS-induced pulmonary edema in mice (mouse lungs [6]; mouse, in vivo) | increase of vascular permeability induced by LPS (mouse lungs [6]) | suppression of vascular permeability induced by LPS treatment (mouse lungs [6]; Evans blue dye leakage, 8 mg/mouse/day, IP, two days) [%] | LOX expression in the lung (LOX [7]; mRNA and/or protein) | LOX expression in other organs, such as the kidney (LOX [7]; not shown) | increase of lung vascular permeability (mouse lungs [4]; Evan's Blue dye leakage, compared to control-treated or untreated mice) [fold]
N#CCCN [BAPN, beta-aminopropionitrile] | 40 | disrupted | approximately 2 fold | 25 | did not produce detectable changes | more than 60% | prevented this disruption | lost the fine network | more randomly distributed | inhibits | prevented |  |  |  | 
CC(C)(S)[C@@H](N)C(=O)O [D-penicillamine] |  |  |  |  |  |  |  |  |  |  |  | 40 |  |  | 
LOX siRNA: siRNA for mouse LOX, 5′-CAACGGGCAGGUGUUCAG-3′ (SEQ ID NO:2) and 5′-CUGAACACCUGCCCGUUG-3′ (SEQ ID NO:3) (listed as RNA, chemistry not given here) | 30 |  |  | 60 |  |  |  |  | disrupted normal collagen fiber alignment |  | restored |  | specifically decreased | not in the kidney | 2.5
